Experiments:
[1] = system: small molecule-rescued trk1Δtrk2Δ cells versus wild type; experiment: Probing sensitivities to known chemical inhibitors assay; type: cell-based, Saccharomyces cerevisiae; conditions: for sensitivity of AmB-rescued trk1Δtrk2Δ cells versus AmB-treated wild type to the inhibitor: AmB rescue, OD600 after 24 hours, FIGS. 3B-3D; for optimum rescue concentration for trk1Δtrk2Δ cells: FIG. 3E legend
Method: Probing sensitivities to known chemical inhibitors assay. Overnight cultures were grown as described in the MIC assay. Prior to harvesting cells, small molecules AmB, nystatin A1 (Riedel-de-Haen), candicidin (TOKU-E), or mepartricin (Santa Cruz Biotechnology) and chemical inhibitors nocodazole (Sigma-Aldrich), ebselen (Cayman Chemical), or bafilomycin BI (Santa Cruz Biotechnology were prepared as stock solutions in DMSO. Saturated cell cultures were centrifuged for 5 minutes at 1000×g. The supernatant was poured off, and cells were resuspended in sterile MilliQ water. Cells were centrifuged again, and supernatant was poured off. The wash step was repeated. The supernatant was poured off, and cells were resuspended in normal potassium YPAD. Cells were diluted with normal potassium YPAD to an OD600 of 0.01. Next, an appropriate volume of AmB, nystatin A1, candicidin, or mepartricin was added to give a final rescuing concentration of 125 nM, 1000 nM, 8 nM, and 8 nM, respectively. A control was prepared by adding the corresponding volume of DMSO to trk1Δtrk2Δ cells. 195 μL of WT+small molecule, 195 μL of trk1Δtrk2Δ+small molecule, and 195 μL of trk1Δtrk2Δ+DMSO were added to a 96 well plate. Next, 5 μL of DMSO or chemical inhibitor was added to each well, with each concentration tested in triplicate for both WT and trk1Δtrk2Δ . The plate was covered and incubated at 30° C. for 24 hours. A BioTek Synergy H1 Hybrid Reader was used to measure the OD600. Utilizing GraphPad PRISM, data were fitted by nonlinear regression, inhibition dose response, variable slope (four parameters) to yield EC50 values with SEM. For statistical analysis, EC50 values from the two treatment groups were compared by unpaired t-test.

[2] = system: CuFi-1 epithelial monolayers (CFTR-deficient human lung epithelia); experiment: Airway surface liquid (ASL) height studies by confocal fluorescence microscopy; type: cell-based
Method: Human cell lines and growth conditions. NuLi and CuFi-1 cells were cultured at the air-liquid interface as previously described, using a 1:1 mixture of DMEM: Ham's F-12 supplemented with 2% v/v Ultroser G (Crescent Chemical). Zabner, J. et al. Am. J. Physiol. Lung Cell. Mol. Physiol. 284, […]-[…] (2003). The membrane supports used were Millicell 0.4 μm PCF inserts (Millipore PIHP01250) for Ussing chamber studies, Corning Costar 0.4 μm Transwell Clear Polyester Membrane inserts (Corning 3470) for rotational mucus transport studies, and Millicell 1.0 μm PCF inserts (Millipore PIRP15R48) for ASL studies. These membranes were allowed to mature at an air-liquid interface for a minimum of 14 days to reach full differentiation. Airway surface liquid (ASL) height studies. ASL height was studied using an established fluorescent dye assay. Worthington, E. N. et al. Methods Mol. Biol. 742, 77-92 (2011); Myerburg. M. M. et al. Am. J. Respir. Cell. Mol. Biol. 42, 676-684 (2010). Mature, differentiated membranes were grown on Millicell […] polyethylene terephthalate hanging cell culture inserts. Wild type (NuLi) lung epithelia were treated with perfluorocarbon (FC-72) vehicle, and CuFi epithelia were treated with vehicle or 500 nM AmB and incubated for 24 hours at 37° ° C. On the day of imaging. 2.5 μL of a 70 kDa Texas Red-dextran conjugate (Molecular Probes) solution in PBS was added to the apical side of the membranes, followed by 100 μL of FC-770 to prevent evaporation. These were placed on 100 μL of PBS on a 10 mm glass bottom Fluorodish for imaging (World Precision Instruments). Membranes were imaged immediately after dye addition and again at 24 hours to examine dye absorption. Three Z-stack images per membrane in biological n=6 were taken on an Zeiss LSM700 confocal microscope at 40× oil immersion. These images were analyzed using ImageJ to determine the area of fluorescence in the left hand 200-micron width of each image. Images were converted to 8-bit, Gaussian Blur was applied, and made binary. The parameters for Analyze Particles were particles from 1-Infinity μm^2 in size and from 0%-100% circularity.

trk1Δtrk2Δ yeast = experiment: Functional complementation of a protein with a small molecule assay (rescue broth microdilution); type: cell-based, Saccharomyces cerevisiae; conditions: for restoration of trk1Δtrk2Δ cell growth by ion transporting natural products: FIG. 3A
From the text: Broth microdilution minimum inhibitory concentration (MIC) assay. The protocol for the MIC broth microdilution assay was adapted from the Clinical and Laboratory Standards Institute document M27-A2 and performed as previously described. Gray, K. C. et. al. Proc. Natl. Acad. Sci. U.S.A. 109, 2234-2239 (2012); Palacios, D. S. et al. J. Am. Chem. Soc. 129, 13804-13805 (2007).
Functional complementation of a protein with a small molecule assay. The protocol for the rescue broth microdilution assay was conducted as described in the MIC assay above with the following additions: trk1atrk2Δ yeast were grown in high potassium (100 mM) YPAD liquid media overnight and transferred to normal potassium YPAD liquid media containing vehicle or the indicated concentration of AmB.

[3] = system: AmB ion channel in trk1Δtrk2Δ cells; conditions: FIG. 2E
Method: Tetraethylammonium block assay. The protocol for the tetraethylammonium block assay was conducted as described in the functional complementation assay above with the addition of 125 nM AmB and the indicated concentration of tetraethylammonium to the normal potassium YPAD media and the indicated concentration of tetraethylammonium to the high potassium (100 mM) YPAD media.

trk1Δtrk2Δ cells = experiment: 86Rb+ uptake assay; type: cell-based, Saccharomyces cerevisiae; conditions: 3 μM; FIG. 2F
Method: ^86Rb^+ uptake assay. The procedure for 86Rb uptake was adapted from Mulet, J. M. et al. Mol. Cell. Biol. 19, 3328-3337 (1999). Overnight yeast cultures were grown as described above. The supernatant was poured off, and the cells were resuspended in sterile water. This wash was repeated two more times. The cells were then resuspended in 40 mL of the potassium starvation/uptake buffer (50 mM succinic acid, 2% glucose, adjusted to pH 5.5 with Tris). After 3 hour incubation in the potassium starvation buffer, cells were centrifuged and washed twice with sterile water. Cells were resuspended in 1 mL of the potassium starvation/uptake buffer. Cell concentration was determined using an INCYTO®; Neubauer disposable hemocytometer, and wild type S. cerevisiae and trk1Δtrk2Δ cells were diluted to the same cell density. 700 μL of the yeast suspension was added to a 1.5 mL Eppendorf tube. After a 5 minute pre-incubation in the potassium starvation/uptake medium, AmB or C35deOAmB was added (final concentration 3 μM) as a DMSO solution. ^86RbCl (1.1 μCi) was then added to the reaction mixtures. Reaction mixtures were vortexed to ensure a homogeneous solution. […] Moist filters were transferred to plastic vials for measuring radioactivity. Radioactivity was monitored using a Perkin Elmer Wizard automatic gamma counter. […]

yeast = conditions: cited from earlier work

CO/C1=C\C(C)=C\[C@@H](C)[C@@H](O)[C@@H](C)C/C(C)=C/C=C/[C@H](OC)[C@@H]([C@@H](C)[C@@H](O)[C@H](C)[C@@]2(O)C[C@@H](O)[C@H](C)[C@@H](C(C)C)O2)OC1=O [bafilomycin]
sensitivity of AmB-rescued trk1Δtrk2Δ cells versus AmB-treated wild type to the inhibitor [1]: exceptionally sensitive

CCCCNc1cc(C(=O)O)cc(S(N)(=O)=O)c1Oc1ccccc1 [bumetanide]
effect on AmB-mediated ASL restoration ([2]; basolateral addition, inhibits NKCC, FIG. 5D): blocked

COC(=O)Nc1nc2ccc(C(=O)c3cccs3)cc2[nH]1 [nocodazole]
sensitivity of AmB-rescued trk1Δtrk2Δ cells versus AmB-treated wild type to the inhibitor [1]: equally sensitive

C[C@@H]1[C@H](O)[C@@H](C)/C=C/C=C/CC/C=C/C=C/C=C/C=C/C(O[C@H]2O[C@H](C)[C@@H](O)[C@H](N)[C@@H]2O)CC2O[C@](O)(CC(O)C(O)CCC(O)CC(O)CC(O)CC(=O)O[C@H]1C)CC(O)C2C(=O)O (stereo partly drawn) [nystatin]
restoration of trk1Δtrk2Δ cell growth by ion transporting natural products (trk1Δtrk2Δ yeast): Vigorous restoration
optimum rescue concentration for trk1Δtrk2Δ cells [1]: 1 µM

CC[N+](CC)(CC)CC [tetraethylammonium]
effect on functional complementation observed with AmB ([3]; 125 nM AmB, normal potassium (10 mM KCl), dose-dependent): inhibited the functional complementation
general toxicity to trk1Δtrk2Δ cells ([3]; permissive conditions (100 mM KCl)): without causing general toxicity

C35-deoxy amphotericin B [C35deOAmB]
86Rb+ uptake in trk1Δtrk2Δ cells (trk1Δtrk2Δ cells): no uptake
restoration of growth in trk1Δtrk2Δ cells (trk1Δtrk2Δ yeast; any tested concentration, FIG. 2D): failed to restore growth
fungicidal activity (yeast): potent fungicidal activity
ASL height of CuFi-1 epithelia, compound added apically ([2]; 500 nM AmB, 24 hours, FIGS. 5A, 5B): no increase in ASL height

candicidin
restoration of trk1Δtrk2Δ cell growth by ion transporting natural products (trk1Δtrk2Δ yeast): Vigorous restoration
optimum rescue concentration for trk1Δtrk2Δ cells [1]: 0.008 µM

mepartricin
restoration of trk1Δtrk2Δ cell growth by ion transporting natural products (trk1Δtrk2Δ yeast): Vigorous restoration
optimum rescue concentration for trk1Δtrk2Δ cells [1]: 0.008 µM

Reference: patent US20240277743A1, “RESTORING PHYSIOLOGY WITH SMALL MOLECULE MIMICS OF MISSING PROTEINS” (The Board of Trustees Of The University Of Illinois, priority 2014, published 2024)
